Target: T1, TLR9 (Homo sapiens, UniProt Q9NR96)
T1 construct: expressed in transfected cells; host or cells: HEK293
T1 sequence (Q9NR96 26-1032): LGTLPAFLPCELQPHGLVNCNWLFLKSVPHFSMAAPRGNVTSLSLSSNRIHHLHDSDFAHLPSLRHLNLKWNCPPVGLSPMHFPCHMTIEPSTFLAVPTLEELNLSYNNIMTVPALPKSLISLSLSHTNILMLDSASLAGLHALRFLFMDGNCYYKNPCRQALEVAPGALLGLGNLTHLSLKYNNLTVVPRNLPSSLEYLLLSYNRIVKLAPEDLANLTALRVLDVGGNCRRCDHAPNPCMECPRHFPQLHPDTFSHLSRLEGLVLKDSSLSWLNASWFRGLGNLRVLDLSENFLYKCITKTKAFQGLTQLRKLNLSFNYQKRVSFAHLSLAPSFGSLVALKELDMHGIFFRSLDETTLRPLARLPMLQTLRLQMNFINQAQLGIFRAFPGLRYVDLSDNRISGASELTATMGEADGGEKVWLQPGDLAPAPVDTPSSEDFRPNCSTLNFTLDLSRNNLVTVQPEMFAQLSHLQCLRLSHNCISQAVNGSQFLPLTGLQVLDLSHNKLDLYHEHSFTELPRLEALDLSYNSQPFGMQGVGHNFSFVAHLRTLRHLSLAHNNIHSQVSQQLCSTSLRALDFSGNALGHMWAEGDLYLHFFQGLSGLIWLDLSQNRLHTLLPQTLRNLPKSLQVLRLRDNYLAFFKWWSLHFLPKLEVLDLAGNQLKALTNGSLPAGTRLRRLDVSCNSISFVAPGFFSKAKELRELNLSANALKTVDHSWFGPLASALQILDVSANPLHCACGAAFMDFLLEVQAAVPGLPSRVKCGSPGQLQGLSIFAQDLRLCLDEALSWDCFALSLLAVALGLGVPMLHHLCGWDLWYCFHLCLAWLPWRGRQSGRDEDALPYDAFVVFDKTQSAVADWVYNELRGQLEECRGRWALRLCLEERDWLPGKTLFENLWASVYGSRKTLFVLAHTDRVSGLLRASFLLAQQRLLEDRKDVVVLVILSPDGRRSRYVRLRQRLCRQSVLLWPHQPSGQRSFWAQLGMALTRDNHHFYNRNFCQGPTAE
Assay: TLR9 screening of (+)-morphinan library, SEAP reporter in HEK293 cells expressing TLR9
Format: cell-based
Settings: activator ODN2006; for OD 650 nm (mean ± sd): control (no activator) 0.14, activator 1.42 OD; for inhibition at 0.1 µM: HEK293, read-out: % Inhibition (mean), 100 nM; for inhibition at 10 µM: HEK293, read-out: % Inhibition (mean), 10 μM
Experimental: The secreted alkaline phosphatase reporter is under the control of a promoter inducible by the transcription factor NF-κB. A library of more than 100 (+)-morphinan compounds was screened for TLR9 antagonist activity by assessing NF-κB activation in the HEK293 cells expressing TLR9. This reporter gene allows the monitoring of signaling through the TLR, based on the activation of NF-κB.
In a 96-well plate (200 μL total volume) containing 50,000 cells/well, 20 μL of each sample compound was added to wells, in triplicate, followed by a 30 minute incubation at 37° C. and 5% CO2. After the 30 minutes of incubation, 20 μL of the activator ODN2006 was added to each well. The media added to the wells was designed for the detection of NF-κB induced SEAP expression. After a 16-20 hr incubation period, the OD at 650 nm was read on a Beckman Coulter AD 340C Absorbance Detector. All compounds were tested at concentrations of 10 μM and 100 nM.

Row | Structure (SMILES) | OD 650 nm (mean ± sd) (100 nM) [OD] | OD 650 nm (mean ± sd) (10 μM) [OD] | inhibition at 0.1 µM [%] | inhibition at 10 µM [%] | % Inhibition (mean) (100 nM, 0.1 µM) [%] | % Inhibition (mean) (10 μM) [%]
1 | C=CCN1CC[C@@]23c4c5ccc(OC)c4OC2C(O)CCC3C1C5 (stereo partly drawn) [II-19] | 1.19 ± 0.03 | 0.15 ± 0.01 | 16 | 90 |  | 
2 | NC1CC[C@]2(O)[C@@H]3Cc4ccc(O)c5c4[C@]2(CCN3CC2CC2)[C@@H]1O5 (stereo partly drawn) [II-71] | 0.19 ± 0.01 | 0.10 ± 0.00 | 87 | 93 |  | 
3 | COc1cc(C(C)C)c2c3c1O[C@@H]1C(=O)CCC4C(C2)N(CC2CC2)CC[C@]341 (stereo partly drawn) [II-4] | 1.18 ± 0.06 | 0.11 ± 0.01 | 17 | 92 |  | 
4 | COc1ccc2c3c1O[C@@H]1C(O)CC[C@]4(O)[C@H](C2)N(CC2CC2)CC[C@@]314 (single isomer, unassigned) [II-53b] | 1.41 ± 0.09 | 1.00 ± 0.03 |  |  | 1 | 29
5 | COc1ccc2c3c1O[C@@H]1C(=O)CC[C@]4(O)[C@H](C2)N(C)CC[C@@]314 [II-39] | 1.23 ± 0.03 | 1.06 ± 0.06 | 14 | 25 |  | 
6 | COc1ccc2c3c1O[C@@H]1C(OC)(OC)C(Br)CC4[C@H](C2)N(C)CC[C@]341 (stereo partly drawn) [II-101] | 1.35 ± 0.06 | 0.94 ± 0.02 | 5 | 34 |  | 
7 | COc1cc(-c2ccoc2)c2c3c1O[C@@H]1C(=O)CCC4C(C2)N(CC2CC2)CC[C@]341 (stereo partly drawn) [II-26] | 1.08 ± 0.06 | 0.12 ± 0.00 | 24 | 92 |  | 
8 | COc1ccc2c3c1O[C@@H]1C(O)CC[C@]4(O)[C@H](C2)N(CC2CCC2)CC[C@@]314 (stereo partly drawn) [II-55] | 1.46 ± 0.08 | 1.17 ± 0.08 | -3 | 18 |  | 
9 | COc1cc(Br)c2c(c1O)[C@@]13CCNC(C2)C1CCC(=O)C3 (stereo partly drawn) [Compound I-1] | 1.18 ± 0.10 | 0.21 ± 0.01 | 17 | 85 |  | 
10 | COC1=CCC2[C@@H]3Cc4ccc(OC)c5c4[C@]2(CCN3CC2CC2)[C@@H]1O5 (stereo partly drawn) [II-87] | 1.28 ± 0.06 | 0.45 ± 0.01 |  |  | 10 | 69
11 | COc1ccc2c(c1O)[C@]13C=CCC[C@]1(O)[C@H](C2)N(C)CC3 [Compound I-22] | 0.93 ± 0.15 | 0.10 ± 0.01 | 34 | 93 |  | 
12 | COc1ccc2c3c1O[C@@H]1CCC[C@]4(O)[C@H](C2)N(C)CC[C@@]314 [II-44] | 1.18 ± 0.02 | 1.03 ± 0.12 | 17 | 27 |  | 
13 | Oc1ccc2c3c1O[C@@H]1[C@H](O)CC[C@]4(O)[C@H](C2)N(CC2CCC2)CC[C@@]314 [II-82] | 1.37 ± 0.02 | 0.49 ± 0.03 | 4 | 65 |  | 
14 | COC1=CCC2[C@@H]3Cc4ccc(OC)c5c4[C@]2(CCN3CC2CC2)[C@@H]1O5 (stereo partly drawn) [II-95] | 1.11 ± 0.04 | 0.37 ± 0.03 |  | 74 | 22 | 
15 | CCOC(=O)N1CC[C@@]23CC(=O)CCC2C1Cc1c(Br)cc(OC)c(O)c13 (stereo partly drawn) [Compound I-11] | 1.49 ± 0.04 | 1.98 ± 0.09 | -5 | -39 |  | 
